The text below walks through data of patent US10647747B2, “Cyclosporin derivatives and uses thereof” (S&T Global Inc., priority 2010, dated 2020).

pEC50: −log10 of the molar value. Like-named read-outs stand apart in the source and are kept apart here. *1 amine or outer side, *2 acyl side, *3 side chain or, on linkers, in order; H or OH if unused. Where a SMILES comes first, the peptide text is derived from it. [ ]: non-standard residue; d: D form. ξ: configuration not given here. NMe(dihydroBmt) = CCCC[C@@H](C)[C@@H](O)[C@H](NC)C(=O)O; MeBmt = C/C=C/C[C@@H](C)[C@@H](O)[C@H](NC)C(=O)O; X11 = CN([C@@H](CC(C)(C)OCCO)C(=O)[*:2])[*:1]; X1 = CN([C@H](SCCCN1CCOCC1)C(=O)[*:2])[*:1]; NMeIle(3ξ) = CCC(C)[C@H](NC)C(=O)O; NMeL = CN[C@@H](CC(C)C)C(=O)O; NMeV = CN[C@H](C(=O)O)C(C)C; Abu = CC[C@H](N)C(=O)O; Sar = CNCC(=O)O

Series [1] can be described thus: Stability testing: epimerization of cyclosporin derivatives in methanol, monitored by HPLC. The series is classed as physicochemical. As to conditions: for Epimerization %: Table 10, MeOH at 50° C.; for Epimerization % after 168 hours: Table 11, MeOH at 50° C.-58° C.
In series [2] the test system is HCV replicon in cell line ET (luc-ubi-neo/ET), Huh7 human hepatoma. Description: HCV subgenomic replicon assay, luciferase end point. The series is classed as cell-based. To be noted: read-out: Antiviral activity EC50.
Where [3] appears, read: Table 12, HCV replicon luciferase.

Take `C/C=C/C[C@@H](C)[C@@H](O)[C@H]1C(=O)N[C@@H](CC)C(=O)N(C)[C@H](SCCCN(CC)CC)C(=O)N(C)[C@@H](CC(C)(C)O)C(=O)N[C@@H](C(C)C)C(=O)N(C)[C@@H](CC(C)C)C(=O)N[C@@H](C)C(=O)N[C@H](C)C(=O)N(C)[C@@H](CC(C)C)C(=O)N(C)[C@@H](CC(C)C)C(=O)N(C)[C@@H](C(C)C)C(=O)N1C`: the Epimerization % is listed as 0% in series [1] (29 hours), “Less than 1%” in series [1] (77 hours) and ~12% in series [1] (125 hours). For `C/C=C/C[C@@H](C)[C@@H](O)[C@H]1C(=O)N[C@@H](CC)C(=O)N(C)[C@H](SCCCN(CC)CC)C(=O)N(C)[C@@H](CC(C)(C)OC)C(=O)N[C@@H](C(C)C)C(=O)N(C)[C@@H](CC(C)C)C(=O)N[C@@H](C)C(=O)N[C@H](C)C(=O)N(C)[C@@H](CC(C)C)C(=O)N(C)[C@@H](CC(C)C)C(=O)N(C)[C@@H](C(C)C)C(=O)N1C`, the Epimerization % in series [1] (29 hours), in series [1] (77 hours) and in series [1] (125 hours) was 0% each time. For the compound `C/C=C/C[C@@H](C)[C@@H](O)[C@H]1C(=O)N[C@@H](CC)C(=O)N(C)[C@H](CSCCN(CC)CC)C(=O)N(C)[C@@H](CC(C)(C)O)C(=O)N[C@@H](C(C)C)C(=O)N(C)[C@@H](CC(C)C)C(=O)N[C@@H](C)C(=O)N[C@H](C)C(=O)N(C)[C@@H](CC(C)C)C(=O)N(C)[C@@H](CC(C)C)C(=O)N(C)[C@@H](C(C)C)C(=O)N1C`, the “Epimerization % after 168 hours” value in series [1] is listed as 0%.

In the case of `C/C=C/C[C@@H](C)[C@@H](O)[C@H]1C(=O)N[C@@H](CC)C(=O)N(C)[C@H](COCCN(CC)CC)C(=O)N(C)[C@@H](CC(C)(C)O)C(=O)N[C@@H](C(C)C)C(=O)N(C)[C@@H](CC(C)C)C(=O)N[C@@H](C)C(=O)N[C@H](C)C(=O)N(C)[C@@H](CC(C)C)C(=O)N(C)[C@@H](CC(C)C)C(=O)N(C)[C@@H](C(C)C)C(=O)N1C`, the “Epimerization % after 168 hours” value in series [1] worked out at 0%.

`C/C=C/C[C@@H](C)[C@@H](O)[C@H]1C(=O)N[C@@H](CC)C(=O)N(C)[C@H](COCCN(CC)CC)C(=O)N(C)[C@@H](CC(C)C)C(=O)N[C@@H](C(C)C)C(=O)N(C)[C@@H](CC(C)C)C(=O)N[C@@H](C)C(=O)N[C@H](C)C(=O)N(C)[C@@H](CC(C)C)C(=O)N(C)[C@@H](CC(C)C)C(=O)N(C)[C@@H](C(C)C)C(=O)N1C`: in series [1], the “Epimerization % after 168 hours” value is 0%. Turning to `C/C=C/C[C@@H](C)[C@@H](O)[C@H]1C(=O)N[C@@H](CC)C(=O)N(C)[C@H](CSCCN(C)C)C(=O)N(C)[C@@H](CC(C)(C)O)C(=O)N[C@@H](C(C)C)C(=O)N(C)[C@@H](CC(C)C)C(=O)N[C@@H](C)C(=O)N[C@H](C)C(=O)N(C)[C@@H](CC(C)C)C(=O)N(C)[C@@H](CC(C)C)C(=O)N(C)[C@@H](C(C)C)C(=O)N1C`, the “Epimerization % after 168 hours” value in series [1] is 0%. For `C/C=C/C[C@@H](C)[C@@H](O)[C@H]1C(=O)N[C@@H](CC)C(=O)N(C)[C@H](COCCN(C)C)C(=O)N(C)[C@@H](CC(C)C)C(=O)N[C@@H](C(C)C)C(=O)N(C)[C@@H](CC(C)C)C(=O)N[C@@H](C)C(=O)N[C@H](C)C(=O)N(C)[C@@H](CC(C)C)C(=O)N(C)[C@@H](CC(C)C)C(=O)N(C)[C@@H](C(C)C)C(=O)N1C`, the “Epimerization % after 168 hours” value in series [1] was found to be 0%.

For `C/C=C/C[C@@H](C)[C@@H](O)[C@H]1C(=O)N[C@@H](CC)C(=O)N(C)[C@H](CSCCCN2CCOCC2)C(=O)N(C)[C@@H](CC(C)(C)O)C(=O)N[C@@H](C(C)C)C(=O)N(C)[C@@H](CC(C)C)C(=O)N[C@@H](C)C(=O)N[C@H](C)C(=O)N(C)[C@@H](CC(C)C)C(=O)N(C)[C@@H](CC(C)C)C(=O)N(C)[C@@H](C(C)C)C(=O)N1C`, in series [1], the “Epimerization % after 168 hours” value worked out at 0%. Turning to `C/C=C/C[C@@H](C)[C@@H](O)[C@H]1C(=O)N[C@@H](CC)C(=O)N(C)[C@H](CSCCCN(C)C)C(=O)N(C)[C@@H](CC(C)(C)O)C(=O)N[C@@H](C(C)C)C(=O)N(C)[C@@H](CC(C)C)C(=O)N[C@@H](C)C(=O)N[C@H](C)C(=O)N(C)[C@@H](CC(C)C)C(=O)N(C)[C@@H](CC(C)C)C(=O)N(C)[C@@H](C(C)C)C(=O)N1C`, in series [1], the “Epimerization % after 168 hours” value is 0%. For `C/C=C/C[C@@H](C)[C@@H](O)[C@H]1C(=O)N[C@@H](CC)C(=O)N(C)[C@H](CSCCCN2CCCCC2)C(=O)N(C)[C@@H](CC(C)(C)O)C(=O)N[C@@H](C(C)C)C(=O)N(C)[C@@H](CC(C)C)C(=O)N[C@@H](C)C(=O)N[C@H](C)C(=O)N(C)[C@@H](CC(C)C)C(=O)N(C)[C@@H](CC(C)C)C(=O)N(C)[C@@H](C(C)C)C(=O)N1C`, the “Epimerization % after 168 hours” value in series [1] amounted to 0%. Consider `C/C=C/C[C@@H](C)[C@@H](O)[C@H]1C(=O)N[C@@H](CC)C(=O)N(C)[C@H](CSCCCN(CC)CC)C(=O)N(C)[C@@H](CC(C)(C)O)C(=O)N[C@@H](C(C)C)C(=O)N(C)[C@@H](CC(C)C)C(=O)N[C@@H](C)C(=O)N[C@H](C)C(=O)N(C)[C@@H](CC(C)C)C(=O)N(C)[C@@H](CC(C)C)C(=O)N(C)[C@@H](C(C)C)C(=O)N1C`, for which the “Epimerization % after 168 hours” value in series [1] stood at 0%.

`C/C=C/C[C@@H](C)[C@@H](O)[C@H]1C(=O)N[C@@H](CC)C(=O)N(C)[C@H](SCCCN2CCOCC2)C(=O)N(C)[C@@H](C(C)CC)C(=O)N[C@@H](C(C)C)C(=O)N(C)[C@@H](CC(C)C)C(=O)N[C@@H](C)C(=O)N[C@H](C)C(=O)N(C)[C@@H](CC(C)C)C(=O)N(C)[C@@H](CC(C)C)C(=O)N(C)[C@@H](C(C)C)C(=O)N1C` (stereo partly drawn) (cyclo(A[dA][NMeL][NMeL][NMeV][MeBmt][Abu][X1][NMeIle(3ξ)]V[NMeL])): the Epimerization % in series [1] (29 hours), in series [1] (77 hours) and in series [1] (125 hours) was 0% in each case. As for `C/C=C/C[C@@H](C)[C@@H](O)[C@H]1C(=O)N[C@@H](CC)C(=O)N(C)[C@H](SCCCN2CCOCC2)C(=O)N(C)[C@@H](C(C)C)C(=O)N[C@@H](C(C)C)C(=O)N(C)[C@@H](CC(C)C)C(=O)N[C@@H](C)C(=O)N[C@H](C)C(=O)N(C)[C@@H](CC(C)C)C(=O)N(C)[C@@H](CC(C)C)C(=O)N(C)[C@@H](C(C)C)C(=O)N1C` (cyclo(A[dA][NMeL][NMeL][NMeV][MeBmt][Abu][X1][NMeV]V[NMeL])), the Epimerization % in series [1] (29 hours), in series [1] (77 hours) and in series [1] (125 hours) was 0% each time.

As for `CCCC[C@@H](C)[C@@H](O)[C@H]1C(=O)N[C@@H](CC)C(=O)N(C)CC(=O)N(C)[C@@H](CC(C)(C)OCCO)C(=O)N[C@@H](C(C)C)C(=O)N(C)[C@@H](CC(C)C)C(=O)N[C@@H](C)C(=O)N[C@H](C)C(=O)N(C)[C@@H](CC(C)C)C(=O)N(C)[C@@H](CC(C)C)C(=O)N(C)[C@@H](C(C)C)C(=O)N1C` [[γ-(2-Hydroxyethoxy)-N-MeLeu]-4-dihydrocyclosporin] (cyclo(A[dA][NMeL][NMeL][NMeV][NMe(dihydroBmt)][Abu][Sar][X11]V[NMeL])), the pEC50 in series [2] (Table 13, HCV replicon luciferase) was 6.37. On to “(R)-2-(N-iso-Butyl-N-iso-propylamino)ethylthio-Sar]-3-cyclosporin”, for which, in series [2] (setting [3]), the pEC50 is 5.33.

Consider “(S)-2-(N,N-Diethylamino)ethylthio-Sar]-3-[N-MeIle]-4-cyclosporin”, for which, in series [2] (setting [3]), the pEC50 was 7.40.
